One series in a line: Solubility in water. The format is physicochemical. The text has this:
It will be recognized that aqueous solubility of many compounds is pH dependent; in the case of such compounds the solubility of interest herein is at a physiologically relevant pH, for example a pH of about 1 to about 8.

Series [1] in a line: Bioavailability of ABT-737 in a rat model. The format is in vivo. The note with it: regardless of formulation.

Read-outs that look alike come from different tables or passages of the source. Where only a bound is given, the exact number is not on record here.

As a reminder, the solubility is the concentration that dissolves in the medium under given conditions. With `CC1(C)CCC(c2ccc(Cl)cc2)=C(CN2CCN(c3ccc(C(=O)NS(=O)(=O)c4ccc(N[C@H](CCN5CCOCC5)CSc5ccccc5)c(S(=O)(=O)C(F)(F)F)c4)cc3)CC2)C1` [ABT-263], the solubility in “Solubility in water” (pH 2, aqueous buffer, read-out: solubility in water at pH 2) is below 4 µg/mL; in the series “Solubility in water” (physiologically relevant pH, about 1 to about 8, read-out: solubility in water) it was below 10 µg/mL.
`CN(C)CC[C@H](CSc1ccccc1)Nc1ccc(S(=O)(=O)NC(=O)c2ccc(N3CCN(Cc4ccccc4-c4ccc(Cl)cc4)CC3)cc2)cc1[N+](=O)[O-]` [ABT-737, N-(4-(4-((4′-chloro-(1,1′-biphenyl)-2-yl)methyl)piperazin-1-yl)benzoyl)-4-(((1R)-3-(dimethylamino)-1-((phenylsulfanyl)methyl)propyl)amino)-3-nitrobenzene-sulfonamide]: in series [1], the Bioavailability is at most 6%.

The record behind these values is US20100278921A1 (priority 2009, published 2010).
